The results in this text go back to US20110098283A1, “3-CINNOLINECARBOXAMIDE DERIVATIVES AND THEIR USE FOR TREATING CANCER” (ASTRAZENECA AB, priority 2007, published 2011).

Molecules are shown by their SMILES.

The target in test [1] is T1, CSF-1R (His-tagged kinase domain, amino acids 568-912) (Homo sapiens, UniProt P07333).
T1 construct: The His-tagged kinase domain of CSF-1R (i.e., amino acids 568-912, GeneBank ID NM_005211); His; made in house; host or cells: baculovirus infected SF+Express insect cells
T1 sequence (P07333 568-912): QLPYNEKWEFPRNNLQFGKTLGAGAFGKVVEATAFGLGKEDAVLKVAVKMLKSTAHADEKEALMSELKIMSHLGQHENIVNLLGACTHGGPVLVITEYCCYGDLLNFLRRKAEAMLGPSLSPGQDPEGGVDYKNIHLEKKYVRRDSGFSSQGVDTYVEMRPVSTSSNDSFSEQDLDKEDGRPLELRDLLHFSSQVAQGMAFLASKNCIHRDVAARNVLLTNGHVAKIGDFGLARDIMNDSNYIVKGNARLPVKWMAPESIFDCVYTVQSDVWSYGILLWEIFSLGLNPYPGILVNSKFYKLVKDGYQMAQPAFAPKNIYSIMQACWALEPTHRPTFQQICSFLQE
The test is described as follows: Assay 1: CSF-1R in vitro AlphaScreen Assay. It is filed as biochemical. To be noted: phosphorylation of pEY substrate; 0.57 nM CSF-1R, 90 μM ATP. As to the method: Assay 1: CSF-1R in vitro AlphaScreen Assay
Activity of purified CSF-1R was determined in vitro using an Amplified Luminescent Proximity Homogeneous Assay (ALPHA) (Perkin Elmer), which measures phosphorylation of the CSF-1R substrate, biotinylated poly-glutamine-tyrosine peptide (pEY-HTRF CisBio 61GT0BLD), as described below.
The phosphorylation of the CSF-1R substrate in the presence and absence of the compound of interest was determined. […] Plates were incubated at 25° C. for 18 hours in the dark. Phosphorylated substrate was detected by an EnVision plate reader (Perkin Elmer) 680 nm excitation, 520-620 nm emission. Data was graphed and IC50s calculated using Excel Fit (Microsoft).
(In general: In Alpha technology, singlet oxygen from a donor bead excites a nearby acceptor bead.)

In test [2] the target is T1, CSF-1R (His-tagged kinase domain, amino acids 568-912). Nature of the test: Assay 2: CSF1R in-vitro AlphaScreen Assay. It is filed as biochemical. The following applies: phosphorylation of pEY substrate; 0.46 nM CSF-1R, 12 mM ATP in mix. As to the method:
Assay 2: CSF1R in-vitro AlphaScreen Assay
Activity of purified CSF-1R was determined in-vitro using an Amplified Luminescent Proximity Homogeneous Assay (ALPHA) (Perkin Elmer, Mass.), which measures phosphorylation of CSF-1R substrate, biotinylated poly-glutamine-tyrosine peptide (pEY-HTRF CisBio 61GT0BLD), as described below. The His-tagged kinase domain of CSF-1R (i e, amino acids 568-912, GeneBank ID NM_005211) was purified from baculovirus infected SF+Express insect cells (1.4×10^6 cells/ml), French pressed and chromatographed through subsequent QIAgen Ni-NTA, Superflow Mono Q HR 10/10, and Superdex 200 SEC columns.
The phosphorylation of the CSF-1R substrate in the presence and absence of the compound of interest was determined. Briefly, 5 ul of Enzyme/Substrate/adenosine triphosphate (ATP) mix consisting of 0.46 nM of purified CSF-1R, 12 nM pEY substrate, and 12 mM ATP in 1.2× buffer was preincubated with 2 ul of compound for 20 minutes at 25° C. Reactions were initiated with 5 ul of Metal mix consisting of 24 mM MgCl2 in 1.2× buffer and incubated at 25° C. for 90 minutes and reactions were stopped by addition of 5 ul of Detection mix consisting of 20 mM HEPES, 102 mM ethylenediamine tetraacetic acid, 1.65 mg/ml BSA, 136 mM NaCl, 40 ug/ml Streptavidin donor beads (Perkin Elmer, Mass., Catalog #6760002), and 40 ug/ml phosphotyrosine-specific antibody coated acceptor beads (Perkin Elmer, Mass., Catalog #6760620). Plates were incubated at 25° C. for 18 hours in the dark. Phosphorylated substrate was detected by an EnVision plate reader (Perkin Elmer) 680 nm excitation, 520-620 nm emission. Data was graphed and IC50s calculated using Excel Fit (Microsoft).

In general, IC50 refers to the concentration that gives 50% inhibition. The low end stands for inhibition by little substance, the high end for a need for much substance. `COc1cc2nnc(C(N)=O)c(Nc3ccc(C)cc3F)c2cc1-c1ccncc1` [Example 26, 4-[(2-Fluoro-4-methylphenyl)amino]-7-methoxy-6-pyridin-4-ylcinnoline-3-carboxamide]: the IC50 in test [1] was determined as 51 nM. This counts as double-digit nanomolar.

Consider `COc1cc2nnc(C(N)=O)c(Nc3ccc(F)cc3F)c2cc1N1CCN(C)CC1` [Example 20, 4-[(2,4-Difluorophenyl)amino]-7-methoxy-6-(4-methylpiperazin-1-yl)cinnoline-3-carboxamide], for which the concentration for half-maximal inhibition (IC50) in test [1] is less than 3 nM.

Compound `COc1cc2nnc(C(N)=O)c(Nc3ccc(C)cc3F)c2cc1N1C[C@@H](C)N[C@@H](C)C1` [Example 36, 6-[(3R,5S)-3,5-Dimethylpiperazin-1-yl]-4-[(2-fluoro-4-methylphenyl)amino]-7-methoxycinnoline-3-carboxamide] gave a half-inhibitory concentration (IC50) in test [2] of less than 3 nM.

On to `COCCOc1cc2nnc(C(N)=O)c(Nc3ccc(F)cc3F)c2cc1N1CCN(C(C)C)CC1` [Example 24, 4-[(2,4-Difluorophenyl)amino]-6-(4-isopropylpiperazin-1-yl)-7-(2-methoxyethoxy)cinnoline-3-carboxamide], for which the IC50 in test [1] is less than 3 nM.

The compound `COc1cc2nnc(C(N)=O)c(Nc3ccc(C)cc3F)c2cc1N1CCn2cnnc2C1` [Example 31, 6-(5,6-Dihydro[1,2,4]triazolo[4,3-a]pyrazin-7(8H)-yl)-4-[(2-fluoro-4-methylphenyl)amino]-7-methoxycinnoline-3-carboxamide] displayed a half-maximal inhibitory concentration (IC50) in test [2] of 13 nM.

Take `COc1cc2nnc(C(N)=O)c(Nc3ccc(C)cc3F)c2cc1N1CCN(CC(F)(F)F)CC1` [Example 42, 4-[(2-Fluoro-4-methylphenyl)amino]-7-methoxy-6-[4-(2,2,2-trifluoroethyl)piperazin-1-yl]cinnoline-3-carboxamide]: the 50% inhibitory concentration (IC50) in test [2] stood at 7 nM.

`COc1cc2nnc(C(N)=O)c(Nc3cccc(Cl)c3Cl)c2cc1OC` [Example 5, 4-[(2,3-Dichlorophenyl)amino]-6,7-dimethoxycinnoline-3-carboxamide] had an IC50 in test [1] of less than 3 nM.

Turning to `COc1cc2nnc(C(N)=O)c(Nc3ccc(C)cc3F)c2cc1N1CCN(C(C)(C)C)CC1` [Example 16, 6-(4-tert-Butylpiperazin-1-yl)-4-[(2-fluoro-4-methylphenyl)amino]-7-methoxycinnoline-3-carboxamide], half-maximal inhibition in test [1] (IC50) required 9 nM.

On to `COc1cc2nnc(C(N)=O)c(Nc3cc(C)ccc3F)c2cc1OC` [Example 4, 4-[(2-Fluoro-5-methylphenyl)amino]-6,7-dimethoxycinnoline-3-carboxamide], for which the midpoint of inhibition in test [1], the IC50, lay at 5 nM.

Compound `COCCOc1cc2nnc(C(N)=O)c(Nc3cc(C)ccc3F)c2cc1N1CCN(C)CC1` [Example 19, 4-[(2-Fluoro-5-methylphenyl)amino]-7-(2-methoxyethoxy)-6-(4-methylpiperazin-1-yl)cinnoline-3-carboxamide] came in with an IC50 in test [1] of less than 3 nM.

`COc1cc2nnc(C(N)=O)c(Nc3cc(C)ccc3F)c2cc1N1CCN(C)CC1` [Example 22, 4-[(2-Fluoro-5-methylphenyl)amino]-7-methoxy-6-(4-methylpiperazin-1-yl)cinnoline-3-carboxamide] had an IC50 in test [1] of less than 3 nM.

With `CCOc1cc2nnc(C(N)=O)c(Nc3cccc(Cl)c3F)c2cc1N1CCN(C)CC1` [Example 9, 4-[(3-Chloro-2-fluoro-phenyl)amino]-7-ethoxy-6-(4-methylpiperazin-1-yl)cinnoline-3-carboxamide], the IC50 in test [1] was less than 15 nM.

As to `COCCOc1cc2nnc(C(N)=O)c(Nc3ccc(F)cc3F)c2cc1N1CCN(C)CC1` [Example 17, 4-[(2,4-Difluorophenyl)amino]-7-(2-methoxyethoxy)-6-(4-methylpiperazin-1-yl)cinnoline-3-carboxamide], in test [1], the IC50 is less than 3 nM.

`CCOc1cc2nnc(C(N)=O)c(Nc3ccc(F)cc3F)c2cc1N1CCN(C(C)C)CC1` [Example 11, 4-[(2,4-Difluorophenyl)amino]-7-ethoxy-6-(4-propan-2-ylpiperazin-1-yl)cinnoline-3-carboxamide] displayed a concentration for half-maximal inhibition (IC50) in test [1] of 8 nM.

Regarding `COCCOc1cc2nnc(C(N)=O)c(Nc3ccc(C)cc3F)c2cc1N1CCN(C)CC1` [Example 18, 4-[(2-Fluoro-4-methylphenyl)amino]-7-(2-methoxyethoxy)-6-(4-methylpiperazin-1-yl)cinnoline-3-carboxamide], in test [1], the IC50 was less than 3 nM.

Consider `COc1cc2nnc(C(N)=O)c(Nc3ccc(F)cc3F)c2cc1OC` [Example 1, 4-[(2,4-Difluorophenyl)amino]-6,7-dimethoxycinnoline-3-carboxamide], for which the IC50 in test [1] is less than 3 nM.

With `CCOc1cc2nnc(C(N)=O)c(Nc3ccc(C)cc3F)c2cc1N1CCN(C)CC1` [Example 10, 7-Ethoxy-4-[(2-fluoro-4-methyl-phenyl)amino]-6-(4-methylpiperazin-1-yl)cinnoline-3-carboxamide], the IC50 in test [1] was less than 3 nM.

As to `CCOc1cc2nnc(C(N)=O)c(Nc3cc(C)ccc3F)c2cc1N1CCN(C)CC1` [Example 6, 7-Ethoxy-4-[(2-fluoro-5-methylphenyl)amino]-6-(4-methylpiperazin-1-yl)cinnoline-3-carboxamide], in test [1], the IC50 is less than 3 nM.

Consider `COCCOc1cc2nnc(C(N)=O)c(Nc3cccc(Cl)c3F)c2cc1N1CCN(C)CC1` [Example 21, 4-[(3-Chloro-2-fluorophenyl)amino]-7-(2-methoxyethoxy)-6-(4-methylpiperazin-1-yl)cinnoline-3-carboxamide], for which the half-inhibitory concentration (IC50) in test [1] was less than 3 nM.

The compound `CCOc1cc2nnc(C(N)=O)c(Nc3ccc(C)cc3F)c2cc1N1CCN(C(C)C)CC1` [Example 25, 7-Ethoxy-4-[(2-fluoro-4-methylphenyl)amino]-6-(4-isopropylpiperazin-1-yl)cinnoline-3-carboxamide] displayed an IC50 in test [1] of less than 3 nM.

In turn, `CCOc1cc2nnc(C(N)=O)c(Nc3ccc(C)cc3F)c2cc1N1CCCN(C)CC1` [Example 27, 7-Ethoxy-4-[(2-fluoro-4-methylphenyl)amino]-6-(4-methyl-1,4-diazepan-1-yl)cinnoline-3-carboxamide] registered an IC50 in test [1] of less than 3 nM.

`CCOc1cc2nnc(C(N)=O)c(Nc3ccc(C)cc3F)c2cc1N1C[C@@H](C)N[C@@H](C)C1` [Example 28, 6-[(3R,5S)-3,5-Dimethylpiperazin-1-yl]-7-ethoxy-4-[(2-fluoro-4-methylphenyl)amino]cinnoline-3-carboxamide] displayed a half-maximal inhibitory concentration (IC50) in test [1] of less than 3 nM.

In test [1], `CCOc1cc2nnc(C(N)=O)c(Nc3cccc(Cl)c3Cl)c2cc1N1CCN(C)CC1` [Example 8, 4-[(2,3-Dichlorophenyl)amino]-7-ethoxy-6-(4-methylpiperazin-1-yl)cinnoline-3-carboxamide] gave a half-maximal inhibitory concentration (IC50) of 3 nM.

With `COc1cc2nnc(C(N)=O)c(Nc3cc(C)ccc3F)c2cc1N1CCN(C(C)C)CC1` [Example 23, 4-[(2-Fluoro-5-methylphenyl)amino]-6-(4-isopropylpiperazin-1-yl)-7-methoxycinnoline-3-carboxamide], the concentration for half-maximal inhibition (IC50) in test [1] is less than 5 nM.

As for `COc1cc2nnc(C(N)=O)c(Nc3ccc(C)cc3F)c2cc1OC` [Example 2, 4-[(2-Fluoro-4-methylphenyl)amino]-6,7-dimethoxycinnoline-3-carboxamide], inhibition in test [1] was half-maximal at 8 nM (IC50).

Consider `COc1cc2nnc(C(N)=O)c(Nc3cccc(Cl)c3F)c2cc1N1CCN(C)CC1` [Example 14, 4-[(3-Chloro-2-fluorophenyl)amino]-7-methoxy-6-(4-methylpiperazin-1-yl)cinnoline-3-carboxamide], for which, in test [1], the 50% inhibitory concentration (IC50) was less than 3 nM.

For the compound `CCOc1cc2nnc(C(N)=O)c(Nc3ccc(F)cc3F)c2cc1N1CCN(CC)CC1` [Example 12, 4-[(2,4-Difluorophenyl)amino]-7-ethoxy-6-(4-ethylpiperazin-1-yl)cinnoline-3-carboxamide], the IC50 in test [1] is 5 nM. This counts as single-digit nanomolar.
